Patent US10233205B2, “Magnetic resonance imaging contrast agent capable of detecting hydrogen peroxide and reducing reactive oxygen species” (Auburn University, priority 2015, dated 2019)
Where “and” joins values, the source holds several entries; their conditions need not be identical. Equal entries are not always repeated.

Legend:
[1] = T1-weighted relaxivity (r1) on 3 T clinical MRI scanner; format: physicochemical; conditions: for r1 after addition of H2O2 / r1, second series of experiments, after H2O2 (oxidized form) / r1, second series of experiments, before H2O2 (reduced form) / r1 (T1-weighted relaxivity): 50 mM HEPES pH 7.00, 3 T; for r1 after addition of H2O2 / r1 (T1-weighted relaxivity): 25° C.; for r1, second series of experiments, after H2O2 (oxidized form) / r1, second series of experiments, before H2O2 (reduced form): 298 K; for r1 (T1-weighted relaxivity): no oxidant
Text: All MRI data were collected at the Auburn University MRI Research Center (Auburn, Ala.) on a Siemens Verio open-bore 3-T MRI clinical scanner. A 15-channel knee coil was used to simultaneously image 12-26 samples. An inversion recovery (IR) sequence was used that featured a non-selective adiabatic inversion pulse followed by a slice-selective gradient recalled echo (GRE) readout after a delay period corresponding to the inversion time (TI).^1-2 The GRE was a saturation readout, such that only one line of k-space was acquired per repetition time (TR). This method was selected to maximize both the signal strength and the accuracy of the T1 estimates. Specific imaging parameters were as follows: TR was set to 4 s, TI was varied from 4.8 to 2500 ms over 37 steps, the echo time (TE) was set to 3.6 ms, the flip angle equaled 90°, averages=1, slice thickness=5 mm, field of view=140×140 mm, matrix=128×128, resulting in a pixel size of 1.1×1.1×5.0 mm. All samples were run in 50 mM solutions of HEPES in water, buffered to pH 7.0 and kept at […]. The manganese content was systematically varied from 0.10 to 1.00 mM. The inverses of the T1 values were plotted versus the concentration of Mn(II) to obtain r1 values. All reported r1 values are averages from the results of two separate series of experiments. Each series of experiments used a different batch of 1.
Image analysis was performed using custom Matlab programs (Mathworks, Natick, Mass.). The initial TI=4.8 ms image served as a baseline to determine circular region of interest (ROI) boundaries for each sample; from these, the mean pixel magnitudes for each ROI were calculated. For each of the 36 subsequent TI images, the same ROI boundaries were applied and the mean pixel magnitude calculations were repeated. This gave consistent ROI spatial definitions and a corresponding time course of magnitudes for each of the samples over all the TI time points. Each sample's complex phase was used to correct the magnitude polarity to produce a complete exponential T1 inversion recovery curve. The Nelder-Mead simplex algorithm^3 was applied to each sample's exponential curve to estimate its corresponding T1 value.
(§1) For the relaxivity measurements, all samples were run in 298 K aqueous solutions containing 50 mM HEPES buffered to pH 7.00, using a 3 T field provided by a clinical MRI scanner. The data were fit to the indicated linear equations; the y-intercepts were within error of 1/T1 measurements associated with two control samples that contained no Mn(II): (A) 10 mM H2O2 in 50 mM HEPES buffer and (B) pure 50 mM HEPES buffer (both 0.46 s^−1).
as §1, with “All” for “For the relaxivity measurements, all”, “s^−1). The oxidation of 1 by 2,3-dichloro-5,6-dicyano-1,4-benzoquinone (DDQ) occurred in CH2Cl2. After the reaction occurred, the 2,3-dichloro-5,6-dicyanoquinol product was removed via filtration, the CH2Cl2 was removed, and the sample was dissolve in HEPES buffer for MRI analysis. The other oxidation reactions occurred entirely in HEPES buffer.” for “s^−1).”
The capability of 3 to serve as a MRI contrast agent was assessed with a 3 T clinical MRI scanner. All samples were run in 298 K aqueous solutions containing 50 mM HEPES buffered to pH 7.00, using a 3 T field provided by a clinical MRI scanner. All samples were prepared under air. The oxidized samples were prepared by directly adding H2O2 to solutions of 3 in aqueous solutions buffered to pH 7.0. The oxidation reactions were allowed to proceed for 30 min at 298 K before the T1 measurements were taken. […]

Cyclic voltammetry = format: physicochemical; conditions: for ΔE, separation between anodic and cathodic peaks: ligand redox feature
Procedure: All ^1H and ^13C NMR spectra were recorded on a 400 MHz AV Bruker NMR spectrometer; all reported resonances were referenced to internal standards. Electron paramagnetic resonance (EPR) spectra were collected using a Bruker EMX-6/1 X-band EPR spectrometer operated in the perpendicular mode. The acquired data were analyzed with the program EasySpin. Each sample was run as a frozen solution in a quartz tube. High-resolution mass spectrometry (HR-MS) data were obtained at the Mass Spectrometer Center at Auburn University on a Bruker microflex LT MALDI-TOF mass spectrometer via direct probe analysis operated in the positive ion mode. IR data were collected using a Shimadzu IR Prestige-21 FT-IR spectrophotometer. A Johnson Matthey magnetic susceptibility balance (model MK I#7967) was used to measure the magnetic properties of the Mn(II) complex with H2qtp1; the reported eff value was the average of those measured for two independently prepared solid samples. Atlantic Microlabs (Norcross, Ga.) performed the elemental analyses (C, H, N). All samples submitted for elemental analysis were crystallized and dried under vacuum prior to their shipment. All cyclic voltammetry was performed under N2 at 294 K using an Epsilon electrochemistry workstation (Bioanalytical System, Inc.), a gold working electrode, a platinum wire auxiliary electrode, and a Ag/AgCl reference electrode.
Complex 3 was studied by cyclic voltammetry (CV) in water containing 50 mM phosphate to buffer the solution to pH 7.2. A redox feature with E1/2 of 60 mV vs. Ag/AgCl (295 mV vs. NHE) is observed (FIG. 22).
Similar redox processes were found for both 1 and a Zn(II)-H2qtp1 complex, leading us to assign the 60 mV redox event to the oxidation of the ligand, rather than the manganese. The separation between the anodic and cathodic peaks (ΔE) for this feature is 230 mV; this is much less reversible than its analog in the CV of 1 (75 mV). A second and entirely irreversible redox event at 725 mV (960 mV vs NHE) is tentatively assigned to the oxidation of Mn(II) to Mn(III). For this analysis, the scan rate was 100 mV/s. For the quasi-reversible feature: E1/2=57 mV vs. Ag/AgCl, ΔE=232 mV. An irreversible feature with Epc=725 mV is also observed.

Row | Compound | r1 after addition of H2O2 ([1]; 10 mM H2O2) | r1, second series of experiments, after H2O2 (oxidized form) ([1]; 10 mM H2O2) | r1, second series of experiments, before H2O2 (reduced form) [1] | r1 (T1-weighted relaxivity) [1] | ΔE, separation between anodic and cathodic peaks (Cyclic voltammetry) | E1/2 vs. NHE (Cyclic voltammetry; phosphate buffer pH 7.2, ligand feature) | increase of relaxivity upon exposure to H2O2 [1] | r1 response to H2O2 ([1]; 10 mM H2O2) | E1/2 vs. Ag/AgCl (Cyclic voltammetry; phosphate buffer pH 7.2, quasi-reversible ligand feature) | irreversible redox event (Epc) vs. Ag/AgCl (Cyclic voltammetry; tentatively Mn(II) to Mn(III)) | irreversible redox event vs NHE (Cyclic voltammetry; tentatively Mn(II) to Mn(III))
1 | CC#N.O=S(=O)([O-])C(F)(F)F.O=S(=O)([O-])C(F)(F)F.[Mn+2].[O-]c1ccc(O)cc1CN(CCN(Cc1ccccn1)Cc1ccccn1)Cc1ccccn1 [Complex 1, Acetonitrilo(N-(2,5-dihydroxy-benzyl)-N,N′,N′-tris(2-pyridinylmethyl)-1,2-ethanediamine)manganese(II) triflate] | 5.30 mM⁻¹ s⁻¹ | 5.30 mM⁻¹ s⁻¹ | 4.73 mM⁻¹ s⁻¹ | 4.73 mM⁻¹ s⁻¹ | 75 mV | about 300 mV | – | – | – | – | –
2 | CC#N.Cc1ccc(O)c(CN(CCN(Cc2ccccn2)Cc2ccccn2)Cc2ccccn2)c1.[Mn+2].[O-][Cl+3]([O-])([O-])[O-].[O-][Cl+3]([O-])([O-])[O-] [Complex 2, reference compound] | – | – | – | 4.39 mM⁻¹ s⁻¹ | – | – | – | – | – | – | –
3 | cis-Dibromo(N,N′-bis(2,5-dihydroxybenzyl)-N,N′-bis(2-pyridinylmethyl)-1,2-ethanediamine)manganese(II) [Complex 3] | 7.17 (+0.15) mM^−1 s^−1 | 7.32 mM⁻¹ s⁻¹ | 5.64 mM⁻¹ s⁻¹ | 5.46 (+0.19) mM^−1 s^−1 | 230 mV and 232 mV | – | 31% | 1.71 mM⁻¹ s⁻¹ | 60 mV and 57 mV | 725 mV | 960 mV
